Assays:
[1] = test system: myocardiale Radio-Calciumaufnahme; test: Inhibition of isoprenaline-induced myocardial radio-calcium uptake in conscious rats (method of Arndts); type: in vivo, Ratten; conditions: peroral administration, dose that inhibits by 50 % the myocardial radio-calcium uptake caused by 30 mg/kg s.c. isoprenaline
Excerpt: Bekanntlich ist der myocardiale Ca⁺² -Gehalt ein Maß für die hypoxische bzw. die durch toxische Catecholamindosen hervorgerufene Herzschädigung (Higgins et al., Mol. Cell. Cardiol. 10: 427 - 438, 1984; Nakanishi et al., Am. J. Physiol. 242: 437 - 449, 1982; Fleckenstein, A., Vorträge der Erlanger Physiol. Tagung 1970, Ed. Keidel, Springer Verlag Berlin, Heidelberg, New York, 1971). Umgekehrt ist die Inhibition der hypoxischen oder Isoprenalin-bedingten mycardialen Calciumaufnahme ein Maß für die cardioprotektive Effektivität von Calciumantagonisten (Fleckenstein s.o.), von Calmodulininhibitoren (Higgins) und anderen Pharmaka, z.B. Betaadrenolytika (Arndts, Arzneimittelforschung 25: 1279 - 1284, 1975).
Die cardioprotektive Wirkung wurde an wachen Ratten nach subcutaner oder peroraler Wirkstoffgabe anhand der von Arndts (s.o.) beschriebenen Methode festgestellt, und die Wirkungsstärke der Testsubtanzen als H₅₀-Wert angegeben; dieser Wert entspricht der Dosis, die die durch eine Gabe von 30 (mg/kg; s.c.) Isoprenalin bedingte myocardiale Radio-Calciumaufnahme zu 50 % hemmt.

Isoliertes Rattenherz = test: Isolated Langendorff heart, oxygen deficiency by reduced perfusion flow, time to onset of regular contractions; design: species or system Ratten; conditions: isolated rat heart; infusion of test substance during the O2 deficiency state (60 min, flow reduced 100-fold)
Protocol: Die Untersuchungen am isolierten Langendorff-Herzen wurden nach O. Langendorff, Pflügers Arch. 61, 291 (1895) mit kleinen Abwandlungen ausgeführt:
Isoliertes Rattenherz, retrograde Perfusion über die Aorta. Elektrische Stimulation (300 Impulse/min, Impulsdauer 1msec). Messung des linksventrikulär entwickelten Druckes mit flüssigkeitsgefülltem Latex-Ballon. Nach 20 min Aequilibrierung Auslösen eines Sauerstoff-Mangelzustandes mit 100-fach vermindertem Fluß durch Drosselung des Perfusionsflusses für 60 min, Rückkehr zu normalem Fluß bewirkt starken Anstieg der Grundspannung, unter Kontrollbedingungen setzt die Herztätigkeit nach 6 - 7 min unregelmäßig wieder ein, nach 15 - 18 min rascher Übergang zu regelmäßigen Kontraktionen. Cardioprotektiv wirksame Verbindungen verkürzen die Zeit bis zum Einsetzen regelmäßiger Kontraktionen. Infusion der Testsubstanz (gelöst in unbegastem Perfusionsmedium) während des O₂-Mangelzustandes herznah in das Perfusionssystem.
Die getesteten Verbindungen ergaben bei Anwendung in der unten angegebenen Konzentration eine signifikante Reduktion der Zeit bis zum Einsetzen regelmäßiger Kontraktionen.

COc1cc2c(cc1OC)C(=C(C(=O)NCCN1CCOCC1)c1ccccc1)NCC2 [Verbindung A]
H50-Wert [1]: 0.73

CCCCNC(=O)C(C1=NCCc2cc(OC)c(OC)cc21)c1ccccc1 (stereo not drawn) [Verbindung B]
H50-Wert [1]: 0.50 | Konzentration (signifikante Reduktion der Zeit bis zum Einsetzen regelmäßiger Kontraktionen) (Isoliertes Rattenherz): 13,3 ug/ml

Source: patent EP0251194A1, “Use of carbocyclic and heterocyclic condensed dihydropyridines for the preparation of cardioprotective remedies and heterocyclic and carbocyclic condensed dihydropyridines and methods and intermediates for their preparation” (BOEHRINGER INGELHEIM KG, priority 1986, dated 1988)
